Test results reported in PMC7613515, “Reading and erasing of the phosphonium analogue of trimethyllysine by epigenetic proteins” (Communications Chemistry, 2022).

Key:
KDM7BJmjC (M37–N483) = assay: MALDI-TOF demethylation assay, KDM7BJmjC; format: biochemical; conditions: 1 hr
Source text: To investigate whether H3KP9me3 can be demethylated by other human KDM4 subfamily members, recombinant KDM4AJmjC (M1–L359) and KDM4DJmjC (M1–L358) were produced in E. coli following an adaption of literature procedures[38],[39]. […] To test the ability of KDM3 and KDM7 subfamily representatives to demethylate H3KP9me2 or H3KP9me3, KDM3AJmjC (T515–S1317) and KDM7BJmjC (M37–N483) were produced using baculovirus/sf9 and E. coli expression systems, respectively[40],[41]. The synthesis of a histone H3 mimic peptide H3KP9me2 substrate is challenging as the tri-alkylated phosphine group is susceptible to oxidation during synthesis of the protected amino acid and during SPPS requiring oxygen-free conditions. Thus, to investigate if KDM3AJmjC or KDM7BJmjC can catalyse demethylation of H3KP9me2, an appropriate H3KP9me2 substrate was prepared in situ from H3KP9me3 using KDM4EJmjC (2.0 µM), in the presence of KDM3AJmjC (2.0 µM) or KDM7BJmjC (2.0 µM).
A Bruker Daltonics MALDI-TOF/TOF AutoflexSpeed machine and Bruker MTP 384 target plates (polished steel BC, Part: 8280781) were used. The machine was controlled using Flex control (v. 3.4 build 135.10) and Compass for flex series (v. 1.4) software. Measurements were in the positive ion mode with the reflectron mode enabled. […] Samples were then analysed by MALDI-TOF. […]

KDM4DJmjC (M1–L358) = assay: MALDI-TOF demethylation assay, KDM4DJmjC; format: biochemical, human; conditions: KDM4DJmjC 2.4 µM, peptide 5.0 µM, 1 hr, duplicates
Description: A Bruker Daltonics MALDI-TOF/TOF AutoflexSpeed machine and Bruker MTP 384 target plates (polished steel BC, Part: 8280781) were used. The machine was controlled using Flex control (v. 3.4 build 135.10) and Compass for flex series (v. 1.4) software. Measurements were in the positive ion mode with the reflectron mode enabled. Incubations employed ProxiPlate-384™ (Perkin Elmer) plates into which was pipetted a solution of [H3_1-15K9me3 (10.0 µM), (+)-sodium L-ascorbate (1.0 mM), (NH4)2Fe(II)(SO4)2 (100 µM), di-sodium 2-oxoglutarate (200 µM) in buffer (HEPES (50 mM)) in MilliQ (pH 7.5)] (5.0 µL) using ClipTip™ (Thermo Scientific™) pipette tips and E1-ClipTip™ (Thermo Scientific™). The enzyme solution [KDM4EJmjC (1.0 µM) in HEPES (50 mM)] (5.0 µL) was added to initiate reaction at 37 °C. Reactions were quenched with formic acid in water (2%, 5.0 µL).

four of the readers = assay: ITC, reader domains taken together; format: binding, human; conditions: four of the five readers
Source text: We investigated the thermodynamics of association of the H3KP4me3 peptide with five representative human reader domains containing either a PHD zinc finger or TTD, i.e. KDM5APHD3 (JARID1A-PHD3, residues M1489–V1641)[10], TAF3PHD (R857–K924)[22], BPTFPHD (L2583–N2751)[23], SGF29TTD (R115–K293)[24] and KDM4ATTD (JMJD2A, Q897-P1011)[25], selected on the basis of their preference for binding Ν^ε-trimethyllysine over other (non)methylation marks (Kme0 < Kme1 < Kme2 < Kme3), and their domain and aromatic cage diversity. The recombinant readers were produced in E. coli following reported procedures. Isothermal titration calorimetric (ITC) analyses were used to determine the dissociation constant (Kd), the Gibbs free energy of binding (ΔG°), the enthalpy of binding (ΔH°), and the entropy of binding (ΔS°). […] (Table 1, Fig. 2, Supplementary Fig. 1).
ITC studies followed a reported procedure. […] Histone peptide titrations were performed with the same reader batches. Solutions of the reader in buffer (25–40 µM) and of the histone H3 peptide (350–600 µM) in buffer were prepared. […] Heats of dilution for histone peptides determined in control experiments were subtracted from the titration binding data. Data were analysed with Origin 6.0 (Microcal Inc., Northampton, Massachusetts, USA) and curve fitting with one-site binding mode was applied.

BPTFPHD (L2583–N2751) = target: T1, BPTFPHD (L2583–N2751) (Homo sapiens, UniProt Q12830); assay: ITC, association of histone H3 peptides with BPTFPHD; format: binding
T1 construct: BPTFPHD (L2583–N2751); made in house; host or cells: E. coli
Description: ITC studies followed a reported procedure[26]. The buffer used corresponded to that used in the final protein purification step. Briefly, TAF3PHD and KDM4ATTD: [Tris (50 mM) in water (pH 7.5)]; KDM5APHD3 and BTPFPHD: [Tris (50 mM), NaCl (20 mM) in water (pH 7.5)]; [Tris (25 mM), NaCl (50 mM), 1,4-dithiothreitol (1.0 mM) in water (pH 7.5)]. Experiments were conducted using ITC200 automated (GE Healthcare Life Sciences, USA) instrument at 25 °C. Histone peptide titrations were performed with the same reader batches. Solutions of the reader in buffer (25–40 µM) and of the histone H3 peptide (350–600 µM) in buffer were prepared. The prepared solutions were plated into a 96-well plate and inserted into the instrument for analysis. Experiments were performed according to manufacturer’s default settings: Plate pre-rinse syringe clean. A total of 19 injections were performed; each experiment was repeated 3–5 times. Heats of dilution for histone peptides determined in control experiments were subtracted from the titration binding data.

[1] = 25 °C, H3 1-10 peptide, Tris (50 mM), NaCl (20 mM), pH 7.5, from 3 to 5 experiments, ± SD

Molecule	demethylation in combination with KDM4EJmjC (KDM7BJmjC (M37–N483); KDM7BJmjC 2.0 µM plus KDM4EJmjC 2.0 µM, peptide 5.0 µM)	demethylation (KDM7BJmjC (M37–N483); KDM7BJmjC 2.0 µM, H3KP9me2 prepared in situ with KDM4EJmjC)	demethylation (KDM4DJmjC (M1–L358))	binding relative to H3K4me3 (four of the readers)	-TΔS° (BPTFPHD (L2583–N2751); [1]) [kcal/mol]	ΔG° (BPTFPHD (L2583–N2751); [1]) [kcal/mol]	ΔH° (BPTFPHD (L2583–N2751); [1]) [kcal/mol]	fold stronger binding (ΔKd), H3KP4me3 versus H3K4me3 (BPTFPHD (L2583–N2751); BPTFPHD)
ARTKQTAR(KPme3)STGGKA [H3KP9me3, histone H3 residues 1–15 with trimethylphosphonium lysine analogue at position 9]	produced H3KP9me2 (due to KDM4EJmjC catalysis), but did not result in masses consistent with H3KP9me1 or H3KP9	do not catalyse demethylation of H3K9me3 (as anticipated) or H3KP9me3	substantial turnover to H3KP9me2	–	–	–	–	–
C[C@H](N)C(=O)N[C@@H](CCCNC(=N)N)C(=O)N[C@H](C(=O)N[C@@H](CCCC[P+](C)(C)C)C(=O)N[C@@H](CCC(N)=O)C(=O)N[C@H](C(=O)N[C@@H](C)C(=O)N[C@@H](CCCNC(=N)N)C(=O)N[C@@H](CCCCN)C(=O)N[C@@H](CO)C(N)=O)[C@@H](C)O)[C@@H](C)O [H3KP4me3]	–	–	–	stronger complex formation than with H3K4me3	4.7 ± 0.1	-9.1 ± 0.1	-13.8 ± 0.1	~ 7 fold
